Data reported in ChEMBL document CHEMBL1131820, “Synthesis of pyrazolidinone antibacterial agents” (1999).
Values after ≈ are worked out from the molar mass of the structure shown. Active and inactive are the calls of the source. No cut-off for these calls is given here.

Legend:
Staphylococcus aureus [1] = assay: Compound was tested by in vitro qualitative microbiological testings with cephalothin against Staphylococcus aureus; No anti bacterial activity; format: functional, organism-based
Escherichia coli [2] = assay: Compound was tested by in vitro qualitative microbiological testings with cephalothin against Escherichia coli; No anti bacterial activity; format: functional, organism-based
Micrococcus luteus = assay: microbe, parasite or virus in culture; format: functional
Description: Antibacterial activity against Micrococcus luteus; 128 to 512 ug/mL

Escherichia coli [3] = assay: In vitro antibacterial activity against Escherichia coli; Active; format: functional, organism-based
Staphylococcus aureus [4] = assay: microbe, parasite or virus in culture; format: functional
Staphylococcus aureus [5] = assay: Compound was tested by in vitro qualitative microbiological testings with cephalothin against Staphylococcus aureus; positive synergy test; format: functional, organism-based
Escherichia coli [6] = assay: Compound was tested by in vitro qualitative microbiological testings with cephalothin against Escherichia coli; positive synergy test; format: functional, organism-based

MIC (Micrococcus luteus)	MIC (Staphylococcus aureus [4])	Compound	Activity (Staphylococcus aureus [1])	Activity (Escherichia coli [2])	Activity (Escherichia coli [3])	Activity (Staphylococcus aureus [5])	Activity (Escherichia coli [6])
–	–	CN1CC(NC(=O)Cc2ccccc2)C(=O)N1 (centres undefined)	inactive	inactive	–	–	–
128 µg/mL (≈ 364 µM)	128 µg/mL (≈ 364 µM)	CN1CC(NC(=O)Cc2ccccc2)C(=O)N1C(=O)Cc1ccccc1 (centres undefined)	–	–	Active	positive synergy test	–
–	–	CC(=O)N1C(=O)C(NC(=O)Cc2ccccc2)CN1C (centres undefined)	–	–	–	positive synergy test	positive synergy test
128 µg/mL (≈ 362 µM)	128 µg/mL (≈ 362 µM)	CN1CC(NC(=O)Cc2ccccc2)C(=O)N1C(=O)c1cccc(O)c1 (centres undefined)	–	–	–	–	–
128 µg/mL (≈ 379 µM)	128 µg/mL (≈ 379 µM)	CN1CC(NC(=O)Cc2ccccc2)C(=O)N1C(=O)c1ccccc1 (centres undefined)	–	–	Active	positive synergy test	–
